This passage reports Ki and IC50 results from ChEMBL document CHEMBL4270532, “Molecular dynamics simulations of viral neuraminidase inhibitors with the human neuraminidase enzymes: Insights into isoenzyme selectivity” (Bioorg Med Chem, 2018).

In assay [1] the target is T1, Sialidase-1 (Homo sapiens, UniProt Q99519). Put plainly: Inhibition of recombinant His6-tagged human neuraminidase 1 expressed in HEK293 cells using 4MU-NANA as substrate preincubated for 15 mins followed by substrate addition measured every 1 min for 30 mins by fluorescence analysis.
Assay [2] addresses T2, Sialidase-3 (Homo sapiens, UniProt Q9UQ49).
T2 sequence (Q9UQ49 whole entry): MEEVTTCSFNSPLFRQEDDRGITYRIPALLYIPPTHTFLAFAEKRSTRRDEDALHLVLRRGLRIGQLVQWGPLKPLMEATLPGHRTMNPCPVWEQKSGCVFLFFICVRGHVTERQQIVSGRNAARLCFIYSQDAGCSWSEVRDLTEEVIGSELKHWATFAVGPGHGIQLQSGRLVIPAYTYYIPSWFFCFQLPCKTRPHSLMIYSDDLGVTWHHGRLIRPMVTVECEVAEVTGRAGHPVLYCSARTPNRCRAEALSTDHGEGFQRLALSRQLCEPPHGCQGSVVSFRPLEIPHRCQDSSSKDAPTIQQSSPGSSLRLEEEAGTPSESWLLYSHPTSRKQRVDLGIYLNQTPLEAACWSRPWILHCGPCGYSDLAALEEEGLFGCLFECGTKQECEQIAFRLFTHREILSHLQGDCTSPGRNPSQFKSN
As to the kind of experiment: Inhibition of MBP-fused recombinant human neuraminidase 3 expressed in Escherichia coli using 4MU-NANA as substrate preincubated for 15 mins followed by substrate addition measured every 1 min for 30 mins by fluorescence analysis.

Assay [3] concerns the target T3, Sialidase-4 (Homo sapiens, UniProt Q8WWR8).
T3 sequence (Q8WWR8 whole entry): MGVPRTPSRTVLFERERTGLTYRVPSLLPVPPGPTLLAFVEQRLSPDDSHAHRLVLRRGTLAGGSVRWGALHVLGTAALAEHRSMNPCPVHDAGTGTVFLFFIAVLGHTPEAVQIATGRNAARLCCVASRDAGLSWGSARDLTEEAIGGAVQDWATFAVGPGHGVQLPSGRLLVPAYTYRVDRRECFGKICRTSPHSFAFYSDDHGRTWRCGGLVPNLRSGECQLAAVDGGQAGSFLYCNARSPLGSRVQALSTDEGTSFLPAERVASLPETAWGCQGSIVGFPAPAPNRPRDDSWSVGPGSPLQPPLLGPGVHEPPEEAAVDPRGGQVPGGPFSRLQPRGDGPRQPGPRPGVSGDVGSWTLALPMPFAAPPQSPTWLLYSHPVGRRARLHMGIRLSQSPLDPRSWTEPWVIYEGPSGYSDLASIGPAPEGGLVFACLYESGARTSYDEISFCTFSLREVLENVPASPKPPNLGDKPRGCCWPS
As to the kind of experiment: Inhibition of MBP-fused recombinant human neuraminidase 4 expressed in Escherichia coli using 4MU-NANA as substrate preincubated for 15 mins followed by substrate addition measured every 1 min for 30 mins by fluorescence analysis.

Assay [4] has as its target T1, Sialidase-1. As to the kind of experiment: Inhibition of recombinant His6-tagged human neuraminidase 1 expressed in HEK293 cells using 4MU-NANA as substrate preincubated for 15 mins followed by substrate addition measured after 30 mins by fluorescence analysis.
The target in assay [5] is T2, Sialidase-3. Put plainly: Inhibition of MBP-fused recombinant human neuraminidase 3 expressed in Escherichia coli using 4MU-NANA as substrate preincubated for 15 mins followed by substrate addition measured after 30 mins by fluorescence analysis.
For assay [6], the target named is T3, Sialidase-4. Put plainly: Inhibition of MBP-fused recombinant human neuraminidase 4 expressed in Escherichia coli using 4MU-NANA as substrate preincubated for 15 mins followed by substrate addition measured after 30 mins by fluorescence analysis.

One may read the IC50 as the point on the concentration scale where inhibition reaches its midpoint.

Bounds are passed on as bounds.

Regarding `CC(=O)N[C@H]1[C@H]([C@H](O)[C@H](O)CO)OC(O)(C(=O)O)C[C@@H]1O` (some centres undefined), the Ki result in assay [1], in assay [2] and in assay [3] was “Not Active” throughout. In addition, the IC50 in assay [4], in assay [5] and in assay [6] was more than 500 µM each time.

For `CCOC(=O)C1=C[C@@H](OC(CC)CC)[C@H](NC(C)=O)[C@@H](N)C1` [OSELTAMIVIR], the Ki entry in assay [1], in assay [2] and in assay [3] was “Not Active” throughout. The IC50 in assay [4], in assay [5] and in assay [6] was more than 500 µM each time.

On to `CCC(CC)[C@H](NC(C)=O)[C@@H]1[C@H](O)[C@@H](C(=O)O)C[C@H]1NC(=N)N` [PERAMIVIR ANHYDROUS], for which the Ki entry in assay [1], in assay [2] and in assay [3] was “Not Active” in each case. For the same molecule, the IC50 in assay [4], in assay [5] and in assay [6] was more than 500 µM in each case.

As to `CC(=O)N[C@H]1[C@H]([C@H](O)[C@H](O)CO)OC(C(=O)O)=C[C@@H]1NC(=N)N` [ZANAMIVIR], the Ki entry in assay [1] was “Not Active”.
